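Five concentrations, 48 hours, 96-well plates. The concentration for full growth arrest is given as TGI.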
Experiments:
Test in all cases: DTP human tumour cell line panel, 48 h
[1] = system: UACC-62 melanoma
[2] = system: BT-549 breast
[3] = system: TK-10 renal
[4] = system: SNB-75 CNS
[5] = system: MCF7 breast
[6] = system: K-562 leukemia
[7] = system: OVCAR-4 ovarian
[8] = system: SK-OV-3 ovarian
[9] = system: OVCAR-3 ovarian
[10] = system: T-47D breast
[11] = system: SK-MEL-2 melanoma
[12] = system: MDA-MB-435
[13] = system: M14 melanoma
[14] = system: NCI-H522 lung
[15] = system: SNB-19 CNS
[16] = system: MDA-N
[17] = system: SF-539 CNS
[18] = system: NCI-H23 lung
[19] = system: OVCAR-5 ovarian
[20] = system: CCRF-CEM leukemia
[21] = system: MDA-MB-231 breast
[22] = system: NCI-H226 lung
[23] = system: CAKI-1 renal
[24] = system: SK-MEL-5 melanoma
[25] = system: UACC-257 melanoma
[26] = system: MOLT-4 leukemia
[27] = system: HT29 colon
[28] = system: MALME-3M melanoma
[29] = system: SK-MEL-28 melanoma
[30] = system: HS 578T breast
[31] = system: NCI-H460 lung
[32] = system: SF-268 CNS
[33] = system: A549 NSCLC
[34] = system: UO-31 renal
[35] = system: HCC-2998 colon
[36] = system: IGROV1 ovarian
[37] = system: 786-0 renal
[38] = system: KM12 colon
[39] = system: HL-60(TB) leukemia
[40] = system: RXF 393 renal
[41] = system: DU-145 prostate
[42] = system: EKVX NSCLC
[43] = system: SN12C renal
[44] = system: NCI/ADR-RES ovarian
[45] = system: HCT-15 colon
[46] = system: HOP-92 NSCLC
[47] = system: LOX IMVI melanoma
[48] = system: RPMI-8226 leukemia
[49] = system: A498 renal
[50] = system: HCT-116 colon
[51] = system: SW-620 colon
[52] = system: OVCAR-8 ovarian
[53] = system: SF-295 CNS
[54] = system: U251 CNS
[55] = system: COLO 205 colon
[56] = system: ACHN renal
[57] = system: PC-3 prostate
[58] = system: HOP-62 NSCLC
[59] = system: SR leukemia

O=C1SC(c2ccc(Cl)cc2)(c2ccc(Cl)cc2)c2ccccc21
TGI [1]: > 100 µM | TGI [2]: > 100 µM | TGI [3]: > 100 µM | TGI [4]: > 100 µM | TGI [5]: > 100 µM | TGI [6]: > 100 µM | TGI [7]: > 100 µM | TGI [8]: > 100 µM | TGI [9]: > 100 µM | TGI [10]: > 100 µM | TGI [11]: 77.5 µM | TGI [12]: > 100 µM | TGI [13]: > 100 µM | TGI [14]: > 100 µM | TGI [15]: > 100 µM | TGI [16]: > 100 µM | TGI [17]: > 100 µM | TGI [18]: > 100 µM | TGI [19]: > 100 µM | TGI [20]: > 100 µM | TGI [21]: > 100 µM | TGI [22]: > 100 µM | TGI [23]: > 100 µM | TGI [24]: > 100 µM | TGI [25]: > 100 µM | TGI [26]: > 100 µM | TGI [27]: > 100 µM | TGI [28]: > 100 µM | TGI [29]: > 100 µM | TGI [30]: > 100 µM | TGI [31]: > 100 µM | TGI [32]: > 100 µM | TGI [33]: > 100 µM | TGI [34]: > 100 µM | TGI [35]: > 100 µM | TGI [36]: > 100 µM | TGI [37]: > 100 µM | TGI [38]: > 100 µM | TGI [39]: 96.6 µM | TGI [40]: > 100 µM | TGI [41]: > 100 µM | TGI [42]: > 100 µM | TGI [43]: > 100 µM | TGI [44]: > 100 µM | TGI [45]: > 100 µM | TGI [46]: > 100 µM | TGI [47]: > 100 µM | TGI [48]: > 100 µM | TGI [49]: > 100 µM | TGI [50]: 55.3 µM | TGI [51]: > 100 µM | TGI [52]: > 100 µM | TGI [53]: > 100 µM | TGI [54]: > 100 µM | TGI [55]: > 100 µM | TGI [56]: > 100 µM | TGI [57]: > 100 µM | TGI [58]: > 100 µM

O=c1cc(NCC2CCCCC2)[nH]c(=O)[nH]1
TGI [2]: > 100 µM | TGI [3]: > 100 µM | TGI [4]: > 100 µM | TGI [5]: > 100 µM | TGI [6]: > 100 µM | TGI [7]: > 100 µM | TGI [9]: > 100 µM | TGI [12]: > 100 µM | TGI [13]: > 100 µM | TGI [59]: > 100 µM | TGI [15]: > 100 µM | TGI [16]: > 100 µM | TGI [17]: > 100 µM | TGI [18]: > 100 µM | TGI [19]: > 100 µM | TGI [20]: > 100 µM | TGI [21]: > 100 µM | TGI [22]: > 100 µM | TGI [24]: > 100 µM | TGI [25]: > 100 µM | TGI [28]: > 100 µM | TGI [29]: > 100 µM | TGI [30]: > 100 µM | TGI [31]: > 100 µM | TGI [32]: > 100 µM | TGI [33]: > 100 µM | TGI [34]: > 100 µM | TGI [35]: > 100 µM | TGI [36]: > 100 µM | TGI [37]: > 100 µM | TGI [38]: > 100 µM | TGI [39]: > 100 µM | TGI [40]: > 100 µM | TGI [41]: > 100 µM | TGI [42]: > 100 µM | TGI [43]: > 100 µM | TGI [44]: > 100 µM | TGI [45]: > 100 µM | TGI [46]: > 100 µM | TGI [47]: > 100 µM | TGI [48]: > 100 µM | TGI [49]: > 100 µM | TGI [50]: > 100 µM | TGI [51]: > 100 µM | TGI [52]: > 100 µM | TGI [53]: > 100 µM | TGI [54]: > 100 µM | TGI [55]: > 100 µM | TGI [56]: > 100 µM | TGI [57]: > 100 µM | TGI [58]: > 100 µM

Cn1cnc2c(OCC3CCCCC3)nc(N)nc21
TGI [1]: > 100 µM | TGI [2]: > 100 µM | TGI [3]: > 100 µM | TGI [4]: > 100 µM | TGI [5]: > 100 µM | TGI [6]: > 100 µM | TGI [7]: > 100 µM | TGI [8]: > 100 µM | TGI [9]: > 100 µM | TGI [11]: > 100 µM | TGI [12]: > 100 µM | TGI [13]: > 100 µM | TGI [14]: > 100 µM | TGI [15]: > 100 µM | TGI [16]: > 100 µM | TGI [17]: > 100 µM | TGI [18]: > 100 µM | TGI [19]: > 100 µM | TGI [20]: > 100 µM | TGI [21]: > 100 µM | TGI [22]: > 100 µM | TGI [23]: > 100 µM | TGI [24]: > 100 µM | TGI [25]: > 100 µM | TGI [26]: > 100 µM | TGI [27]: > 100 µM | TGI [28]: > 100 µM | TGI [29]: > 100 µM | TGI [30]: > 100 µM | TGI [31]: > 100 µM | TGI [32]: > 100 µM | TGI [33]: > 100 µM | TGI [34]: > 100 µM | TGI [35]: > 100 µM | TGI [36]: > 100 µM | TGI [37]: > 100 µM | TGI [38]: > 100 µM | TGI [39]: > 100 µM | TGI [40]: > 100 µM | TGI [41]: > 100 µM | TGI [42]: > 100 µM | TGI [43]: > 100 µM | TGI [44]: > 100 µM | TGI [45]: > 100 µM | TGI [46]: > 100 µM | TGI [47]: > 100 µM | TGI [48]: > 100 µM | TGI [50]: > 100 µM | TGI [51]: > 100 µM | TGI [52]: > 100 µM | TGI [53]: > 100 µM | TGI [54]: > 100 µM | TGI [55]: > 100 µM | TGI [56]: > 100 µM | TGI [57]: > 100 µM | TGI [58]: > 100 µM

Cc1cn(CC2=NCC(C)(C)CN2)c(=O)[nH]c1=O
TGI [1]: > 100 µM | TGI [2]: > 100 µM | TGI [3]: > 100 µM | TGI [4]: > 100 µM | TGI [5]: > 100 µM | TGI [8]: > 100 µM | TGI [10]: > 100 µM | TGI [11]: > 100 µM | TGI [13]: > 100 µM | TGI [14]: > 100 µM | TGI [15]: > 100 µM | TGI [16]: > 100 µM | TGI [18]: > 100 µM | TGI [19]: > 100 µM | TGI [20]: > 100 µM | TGI [21]: > 100 µM | TGI [22]: > 100 µM | TGI [24]: > 100 µM | TGI [25]: > 100 µM | TGI [27]: > 100 µM | TGI [28]: > 100 µM | TGI [29]: > 100 µM | TGI [30]: > 100 µM | TGI [31]: > 100 µM | TGI [32]: > 100 µM | TGI [33]: > 100 µM | TGI [34]: > 100 µM | TGI [35]: > 100 µM | TGI [36]: > 100 µM | TGI [37]: > 100 µM | TGI [39]: > 100 µM | TGI [40]: > 100 µM | TGI [41]: > 100 µM | TGI [42]: > 100 µM | TGI [43]: > 100 µM | TGI [44]: > 100 µM | TGI [45]: > 100 µM | TGI [46]: > 100 µM | TGI [47]: > 100 µM | TGI [49]: > 100 µM | TGI [50]: > 100 µM | TGI [51]: > 100 µM | TGI [52]: > 100 µM | TGI [53]: > 100 µM | TGI [54]: > 100 µM | TGI [55]: > 100 µM | TGI [56]: > 100 µM | TGI [57]: > 100 µM | TGI [58]: > 100 µM

Source: PubChem BioAssay (NCI)
